Test [1] relates to ERK1, ERK2, JNK1 and JNK2. The test can be described thus: western blot of phosphorylated MAP kinases in cultured human corneal stromal keratocytes. It counts as cell-based. The following applies: for phosphorylation of ERK1 and ERK2: 200 ng/ml factor vs control; for phosphorylation of JNK1: vs serum-free medium. As to the method: (§1) In order to evaluate the effect of GDNF and other neurotrophic factors on the activation of signal transduction pathways in cultured corneal epithelial and stromal keratocytes, western blots were performed for detecting an accumulation of phosphorylated MAP kinases ERK and JNK in the presence of GDNF, NGF and BDNF. Human stromal keratocytes were cultured in RPMI 1640 medium containing L-glutamine (glutaMAX) or DMEM with 10% FBS for one day and starved in serum-free medium for another day. Cultures were then washed with PBS and incubated in serum-free DMEM without additives or with recombinant human GDNF (200 ng/ml), recombinant human NGF (200 ng/ml) and recombinant human BDNF (200 ng/ml) (all obtained from R & D Systems, Mineapolis, Minn., USA) for 30 min. Some cultures were incubated with an inhibitor of MAP kinases (PD 98059, Torcris Cookson Ballwin, Mo., USA) at 100 μM for 1 h prior to exposure to neurotrophines. After washing with PBS, culture cells were solubilized in lysis buffer containing 50 mM Tris-Cl (pH 8.0), 150 mM NaCl, 0.02% sodium azide, 100 μg/ml PMSF, 1% Triton X-100 and a mixture of several protein inhibitors (Complete®, Boehringer Mannheim) (one tablet/50 ml buffer). 50 μg total protein per lane was fractionated by a 10% STS-MOPS NUPAGE Bis-tris gel (NOVEX, San Diego, Calif., USA) and blotted onto nitrocellulose membrane. Membranes were stained with diluted polyclonal antibodies against ERK1, ERK2, JNK1 and JNK2 (Santa Cruz Biotechnology, Santa Cruz, Calif., USA). Also a polyclonal antibody was used which recognizes the […] form of either ERK1 and ERK2 which was raised against the catalytic core of the phosphorylated threonine residue 183 and tyrosine residue 185 of mammalian ERK2. Similarily, a polyclonal antibody recognizing the phosphorylated form of JNK1 and JNK2 was used (both from Promega). In the last step the membranes were visualized with the ECL western blot analysis system (Amersham).
(In western blotting, separated proteins are transferred to a membrane and probed.)

Test [2] relates to ERK1, ERK2, JNK1 and JNK2. The test can be described thus: western blot of phosphorylated MAP kinases in cultured human corneal epithelium. It counts as cell-based. The following applies: for phosphorylation of ERK1 and ERK2: 200 ng/ml factor vs serum-free control medium; for phosphorylation of ERK1 and ERK2 / phosphorylation of JNK1/2: human epithelial cells; for phosphorylation of JNK1/2: vs control. As to the method: as §1

For test [3], the system named is corneal epithelial cells from the SV40 transformed cell line. The test can be described thus: in vitro wound healing assay (scratch wound), cell line. The class given is cell-based, human. The following applies: 18 h, control 20%±4.5. As to the method:
(§2) For in vitro wound healing assays primary corneal epithelial cells and cells from the corneal epithelial cell line were seeded at a density of 5×10^5 onto 60 mm plastic dishes with 2 mm grid (Sarstedt, Numbrecht, Germany) and cultured for 2 days until subconfluency. For experiments with artemin primary cultured rabbit corneal epithelial cells were used. These cells had been isolated with Dispase (1,2 U/ml) and trypsin/EDTA. Rabbit cells had been cultured in medium 500 with additives (Cascade Biologies).
(§3) The cell layer was injured under the microscope by inducing several parallel scratches with a soft plastic cell scrubber (Falcon, Becton and Dickinson, Heidelberg, Germany). The tip of the scrubber was cut and measured about 1 mm and consequently the width of the scratch in the cell layer was also about 1 mm. Selected areas in the dishes were marked with a very fine marker pen and consecutive images were taken at different time points at 5×magnification under an inverted phase contrast microscope (Axiovert 25, Zeiss, Jena, Germany) equipped with a video camera. Following the experimental injury dishes were incubated in SHEM medium either containing no growth factors (control) or containing either GDNF (250 ng/ml) (recombinant human GDNF expressed in E. coli), NGF (250 ng/ml) (Boehringer Mannheim, Germany) or EGF ([…]). For experiments investigating artemin cells were cultured in medium 500 without additives and 250 ng artemin was added. For each condition four representative areas were evaluated within three dishes. The mean diameter of the scratch in each representative area was set as 100% at the beginning of the experiment. 18 hours later the mean diameter of the same scratch was calculated again and expressed in percent of the diameter at the beginning of the experiment.

The subject of test [4] is primary human corneal epithelial cells. The test can be described thus: in vitro wound healing assay (scratch wound), primary cells. The class given is cell-based. The following applies: 18 h, control less than 10%. As to the method: as §2, §3
A further test concerns the target T1, Ret (Homo sapiens, UniProt P07949).
T1 construct: The level of phosphorylated Ret (approximately 150 kD) in cultured corneal epithelial cells (control) was low prior to addition of GDNF; endogenous in cells; host or cells: SV40-transformed human corneal epithelial cell line (Araki-Sasaki et al., 1995)
In words: immuno-precipitation and western blot of tyrosine-phosphorylated Ret in cultured corneal epithelial cells. The class given is cell-based. Conditions: cells pretreated with herbimycin A, then GDNF 10 minutes.

Another test deals with corneal epithelial cells. In words: in vitro wound healing model with herbimycin A. The class given is cell-based. The following applies: 10 μM Herbimycin A in presence of 250 ng/ml GDNF; 18 hours. As to the method:
as §2
The cell layer was injured under the microscope by inducing several parallel scratches with a soft plastic cell scrubber (Falcon, Becton and Dickinson, Heidelberg, Germany). The tip of the scrubber was cut and measured about 1 mm and consequently the width of the scratch in the cell layer was also about 1 mm. Selected areas in the dishes were marked with a very fine marker pen and consecutive images were taken at different time points at 5×magnification under an inverted phase contrast microscope (Axiovert 25, Zeiss, Jena, Germany) equipped with a video camera. […] For each condition four representative areas were evaluated within three dishes. […] 18 hours later the mean diameter of the same scratch was calculated again and expressed in percent of the diameter at the beginning of the experiment. […]

The subject of test [5] is FAK, Pyk2, cRaf, MEK1, Erk 1 and 2, Elk, RSK. In words: western blot of phosphorylated intracellular signaling proteins in corneal epithelial cells. The class given is cell-based, human. The following applies: preincubation with herbimycin A for two hours. As to the method: In order to investigate which protein kinase cascades are activated by GDNF and artemin, corneal epithelial cells from the cell line were seeded at a density of 5×10^5 cells/75 cm^2 and cultured in SHEM with 10% FBS for one day. Cultures were then washed with PBS and incubated in serum-free SHEM without additives or with GDNF (200 ng/ml) or with artemin (250 ng) for 10 to 40 minutes. After washing with PBS, cultured cells were solubilized in lysis buffer containing 50 mM Tris2Cl (pH8.0), 150 mM NaCl, 0.02% sodium azide, 100 μg/ml phenylmethylsulfonyl fluoride, 1 mM Na3VO4, 1% Triton X-100 and a mixture of several protease inhibitors [complete™, Boehringer Mannheim (1 tablet/30 ml buffer)]. 80 μg total protein per lane was fractionated by NuPAGE 10% SDS-MOPS-Bis-Tris gel or NuPAGE 3-8% Tris-acetate gel (all from NOVEX, San Diego, Calif.) and blotted onto a nitrocellulose membrane. Phosphorylated proteins were detected with phospho-specific antibodies and visualized with the ECL western blot analysis system (Amersham). Antibodies against phospho-Raf(ser259), phospho-MEK1/2(ser217/221), phospho-MAPK (Erk1/2) (thr202/tyr204), phospho-p90 ribosomal S6 kinase (RSK) (ser381) and phospho-Elk-1(ser383) were obtained from New England Biolabs (Beverly, Mass.). Antibody against phospho-FAK (tyr397/tyr407/tyr576/tyr577/tyr861/tyr925) and phospho-Pyk2 (tyr402/tyr579/tyr/580/tyr881) were purchased from Biosource (Camarillo, Calif., USA). A monoclonal antibody against phospho-tyrosine came from Sigma (Deisenhofen, Germany).

The test system of test [6] is primary rabbit corneal epithelial cells. In words: single cell clonal growth assay (colony formation, clonal proliferation). The class given is cell-based. The following applies: 10 ng/ml; day 6; control 40±20. An excerpt:
In order to evaluate the effect of GDNF on corneal proliferation, recombinant human GDNF was used (R&D, Minneapolis, Minn., USA). For the evaluation of the effect on corneal epithelial proliferaton a single cell clonal growth model was utilized which allows to determine the effect of the given growth factor on both colony formation as well as clonal expansion (Kruse et al., 1991). New Zealand white rabbits were housed and treated according to the ARVO Resolution of Animals in Research and under observation of German Federal Laws and the laws of the State of Baden-Württemberg. Prior to sacrifice with an intravenous overdose of pentobarbital, they received an intramuscular injection of xylazine hydrochloride and ketamine hydrochloride. The details of the clonal growth assay are described in Kruse et al. (1991). 5000 viable cells were seeded in each 16 mm dish in serum-free medium MCDB 151 with a supplement (S) of insulin (5 μg/ml), transferrin (5 μg/ml), selenium (5 ng/ml) and hydrocortisone (5 μg/ml) (all from Sigma, Deisenhofen, Germany). […] This quantification was facilitated by the use of dishes which contained a grit on the bottom which is roughly 2 mm wide (from Sarstedt, Newton, N.C., USA). For data collection the entire surface area of four randomly selected dishes for each condition was screened. Furthermore, the number of cells per colony was determined in 75 randomly selected colonies for each condition. Furthermore, the total number of cells/dish was calculated in order to carry out an evaluation for artemin. In order to stimulate the cellular proliferation, GDNF (50 or 200 ng/ml) or artemin (250 ng/ml) was added to the medium. In order to estimate the rate of proliferation after 12 days (a time when neighbouring colonies started to grow into each other and, therefore, prevented numerical quantification) dishes were fixed in −20° C. methanol and stained with methylene blue.
All experiments examining the effect of GDNF on corneal proliferation were performed in triplicate with cells from different donors. The influence of growth factor on colony formation, colony size and cell number was studied using one-way analysis of variance. […] Student's t-test was employed to determine which differences were significant after analysis of variance.

The test system is the same in test [7]. The test can be described thus: in vitro wound healing assay (scratch wound), artemin. The following applies: 10 ng/ml; within 6 h; vs control. It counts as cell-based. As to the method:
as §2
The cell layer was injured under the microscope by inducing several parallel scratches with a soft plastic cell scrubber (Falcon, Becton and Dickinson, Heidelberg, Germany). The tip of the scrubber was cut and measured about 1 mm and consequently the width of the scratch in the cell layer was also about 1 mm. Selected areas in the dishes were marked with a very fine marker pen and consecutive images were taken at different time points at 5×magnification under an inverted phase contrast microscope (Axiovert 25, Zeiss, Jena, Germany) equipped with a video camera. […] For each condition four representative areas were evaluated within three dishes. […] 18 hours later the mean diameter of the same scratch was calculated again and expressed in percent of the diameter at the beginning of the experiment.

T1 sequence (P07949 29-1114): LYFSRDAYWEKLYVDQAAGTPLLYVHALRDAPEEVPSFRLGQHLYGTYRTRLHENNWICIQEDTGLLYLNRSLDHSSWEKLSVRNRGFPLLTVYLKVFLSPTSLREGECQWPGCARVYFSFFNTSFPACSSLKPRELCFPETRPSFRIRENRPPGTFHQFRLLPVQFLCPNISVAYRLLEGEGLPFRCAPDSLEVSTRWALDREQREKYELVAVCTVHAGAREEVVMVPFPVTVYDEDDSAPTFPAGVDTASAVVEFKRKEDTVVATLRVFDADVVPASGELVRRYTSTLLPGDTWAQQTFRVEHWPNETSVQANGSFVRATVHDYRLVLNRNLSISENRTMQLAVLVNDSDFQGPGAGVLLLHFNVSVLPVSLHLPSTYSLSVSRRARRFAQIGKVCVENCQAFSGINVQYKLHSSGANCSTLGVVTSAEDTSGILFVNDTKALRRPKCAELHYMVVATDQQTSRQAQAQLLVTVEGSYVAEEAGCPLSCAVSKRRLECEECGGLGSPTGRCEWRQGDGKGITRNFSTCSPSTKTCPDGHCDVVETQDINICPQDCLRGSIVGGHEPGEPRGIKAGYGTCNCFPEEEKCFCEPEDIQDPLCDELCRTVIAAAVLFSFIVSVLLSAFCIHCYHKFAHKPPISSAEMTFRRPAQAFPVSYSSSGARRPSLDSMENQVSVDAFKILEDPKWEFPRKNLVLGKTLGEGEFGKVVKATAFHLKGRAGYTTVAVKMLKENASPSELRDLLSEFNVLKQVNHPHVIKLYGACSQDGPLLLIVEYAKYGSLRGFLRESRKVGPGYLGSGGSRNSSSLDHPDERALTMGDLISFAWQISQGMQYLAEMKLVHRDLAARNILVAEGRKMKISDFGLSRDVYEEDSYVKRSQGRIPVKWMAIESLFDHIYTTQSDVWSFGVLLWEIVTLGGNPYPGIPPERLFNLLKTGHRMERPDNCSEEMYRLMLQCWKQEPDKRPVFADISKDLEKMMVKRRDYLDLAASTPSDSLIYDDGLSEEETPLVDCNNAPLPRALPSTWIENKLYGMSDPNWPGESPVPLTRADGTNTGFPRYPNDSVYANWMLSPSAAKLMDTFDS

With `COc1cccc(-c2cc(=O)c3ccccc3o2)c1N` [PD 98059, reference compound], in test [1] (PD 98059 with BDNF 200 ng/ml), the “effect on phosphorylation of ERK1 in presence of BDNF” value is “remained unchanged”. For the same molecule, the “effect on GDNF-induced phosphorylation of ERK1” value in test [1] (PD 98059 with GDNF 200 ng/ml) is on record as “inhibited”. The “effect on NGF-induced phosphorylation of ERK1” value in [1] (PD 98059 with NGF 200 ng/ml) is “inhibited”. In addition, the “effect on BDNF-induced phosphorylation of ERK1 and ERK2” value in test [2] (PD 98059 100 μM 1 h before BDNF 200 ng/ml, epithelial cells) is “not inhibited”. The “effect on GDNF-induced phosphorylation of ERK1 and ERK2” value in [2] (PD 98059 100 μM 1 h before GDNF 200 ng/ml, epithelial cells) is on record as “prevented”. Besides, the “effect on NGF-induced phosphorylation of ERK1 and ERK2” value in test [2] (PD 98059 100 μM 1 h before NGF 200 ng/ml, epithelial cells) is reported as “prevented”.
With “NGF: recombinant human NGF, neurotrophic factor used as comparison / positive control”, in test [1], the “activated JNK2” value is recorded as “not induced”; the “phosphorylation of ERK1 and ERK2” value is given as “induced”; the “phosphorylation of JNK1” value is on record as “weakly induced”. The “gap in the cell monolayer filled” value in test [3] (250 ng/ml) is reported as 27%±7.1. Also, in test [2], the “phosphorylation of ERK1 and ERK2” value is listed as “increased”; the “phosphorylation of JNK1/2” value was “not induced”. In addition, the “gap in the cell monolayer filled” value in test [4] (250 ng/ml) is listed as 19.6%±3.1.
As to `CO[C@H]1[C@@H](OC)C[C@H](C)[C@@H](OC)C2=CC(=O)C=C(NC(=O)/C(C)=C/C=C\[C@H](OC)[C@@H](OC(N)=O)/C(C)=C/[C@@H]1C)C2=O` [herbimycin A, reference compound], the “GDNF-dependent tyrosine phosphorylation of Ret” value at Ret is recorded as “specifically inhibited”. For the same molecule, the wound gap closed in the test on corneal epithelial cells worked out at 19.2±5.5%. In addition, in test [5], the “GDNF-dependent phosphorylation of Erk” value was “significantly decreased”, the “GDNF-dependent phosphorylation of FAK” value is listed as “significantly decreased” and the “GDNF-dependent phosphorylation of cRaf” value is “significantly decreased”.
In the case of “EGF: growth factor used as positive control at 10 ng/ml”, the results for the “gap in the cell monolayer filled” value in test [3] (10 ng/ml) and in test [4] (10 ng/ml) were 44.6±9% and 19.0%±8.6, respectively. For the same molecule, in test [6], the “total number of colonies” value is 58±18. Besides, the “in vitro wound healing” value in [7] is listed as “significant increase”.

B1: BDNF: recombinant human BDNF, neurotrophic factor used for comparison (protein, UniProt P23560 19-247, looked up)
Neurotrophic factor BDNF …: APMKEANIRGQGGLAYPGVRTHGTLESVNGPKAGSRGLTSLADTFEHVIEELLDEDQKVRPNEENNKDADLYTSRVMLSSQVPLEPPLLFLLEEYKNYLDAANMSMRVRRHSDPARRGELSVCDSISEWVTAADKKTAVDMSGGTVTVLEKVPVSKGQLKQYFYETKCNPMGYTKEGCRGIDKRHWNSQCRTTQSYVRALTMDSKKRIGWRFIRIDTSCVCTLTIKRGR
Take B1: in test [1], the “activated JNK2” value is “not induced”; the “phosphorylation of ERK1 and ERK2” value is “did not induce”; the “phosphorylation of JNK1” value is listed as “weakly induced”. In test [2], the “phosphorylation of ERK1 and ERK2” value is reported as “increased”; the “phosphorylation of JNK1/2” value was “not induced”.

Source of the values: US20030166537A1, “Use of GDNF for treating corneal defects” (Biopharm Gesellschaft Zur Biotechnologischen Entwicklung …, priority 1999, published 2003).
